According to ChEMBL document CHEMBL4334533, “Design, synthesis, and validation of novel nitrogen-based chalcone analogs against triple negative breast cancer” (Eur J Med Chem, 2020):
Active and inactive are the calls of the source. The calls are words filed in the database; no cut-off is given here.

Tests used:
MDA-MB-231 [1] = experiment: Antiproliferative activity against human MDA-MB-231 cells assessed as inhibition of cell growth measured after 48 hrs by microplate reader analysis; format: functional, cell-based; conditions: MDA-MB-231, 48 h
MDA-MB-231 [2] = experiment: Cell cycle arrest in human MDA-MB-231 cells assessed as accumulation at S phase at 10 uM measured after 48 hrs by propidium iodide staining-based flow cytometric analysis relative to control; format: functional
MDA-MB-468 [3] = experiment: Antiinvasive activity in human MDA-MB-468 cells assessed as reduction in 10% FBS-induced cell invasion at 10 uM by crystal violet staining based matrigel assay relative to control; format: functional
MDA-MB-231 [4] = experiment: Growth inhibition in human MDA-MB-231 cells at 10 uM after 48 hrs by MTT assay; format: functional, cell-based
MDA-MB-231 [5] = experiment: Induction of morphological changes in human MDA-MB-231 cells assessed as mesenchymal-epithelial transition at 10 uM by inverted microscopic analysis; format: functional, cell-based
MCF7 [6] = experiment: Antiinvasive activity in human MCF7 cells assessed as reduction in 10% FBS-induced cell invasion at 10 uM by crystal violet staining based matrigel assay relative to control; format: functional
MDA-MB-231 [7] = experiment: Antiinvasive activity in human MDA-MB-231 cells assessed as reduction in 10% FBS-induced cell invasion at 10 uM by crystal violet staining based matrigel assay relative to control; format: functional; set-up: scale not given: the % may be the effect or the level left
[8] = Cytotoxicity against E6/E7 immortalized human HNME cells assessed as inhibition of cell growth measured after 48 hrs by microplate reader analysis; format: cell-based; conditions: read-out: LD50
MCF7 [9] = experiment: Growth inhibition in human MCF7 cells at 10 uM after 48 hrs by MTT assay; format: functional, cell-based
MCF7 [10] = experiment: Antiproliferative activity against human MCF7 cells assessed as inhibition of cell growth measured after 48 hrs by microplate reader analysis; format: functional, cell-based; conditions: MCF7, 48 h
[11] = Selectivity index, ratio of LD50 for E6/E7 immortalized human HNME cells to IC50 for human MCF7 cells
MDA-MB-468 [12] = experiment: Induction of morphological changes in human MDA-MB-468 cells assessed as mesenchymal-epithelial transition at 10 uM by inverted microscopic analysis; format: functional, cell-based
MCF7 [13] = experiment: Induction of morphological changes in human MCF7 cells assessed as mesenchymal-epithelial transition at 10 uM by inverted microscopic analysis; format: functional, cell-based
[14] = Selectivity index, ratio of LD50 for E6/E7 immortalized human HNME cells to IC50 for human MDA-MB-468 cells
Chorioallantoic membrane = experiment: Antiangiogenic activity in Leghorn chicken fertilized egg chorioallantoic membrane assessed as reduction in number of blood vessels at 4 ug measured after 4 days by microscopic analysis; format: functional, tissue-based; conditions: Gallus gallus
MDA-MB-468 [15] = experiment: Cell cycle arrest in human MDA-MB-468 cells assessed as accumulation at S phase at 10 uM measured after 48 hrs by propidium iodide staining-based flow cytometric analysis relative to control; format: functional
MDA-MB-231 [16] = experiment: Antimigratory activity in human MDA-MB-231 cells assessed as inhibition of cell motility after 24 hrs by microscopic analysis; format: functional, cell-based; conditions: MDA-MB-231, 24 h
MDA-MB-231 [17] = experiment: Antimigratory activity in human MDA-MB-231 cells assessed as wound diameter at 5 uM measured after 24 hrs by microscopic analysis; format: functional, cell-based
MDA-MB-468 [18] = experiment: Antiproliferative activity against human MDA-MB-468 cells assessed as inhibition of cell growth measured after 48 hrs by microplate reader analysis; format: functional, cell-based; conditions: MDA-MB-468, 48 h
MDA-MB-468 [19] = experiment: Inhibition of anchorage-independent colony formation in human MDA-MB-468 cells at 5 uM measured upto 21 days by soft agar colony formation assay; format: functional, cell-based
[20] = Selectivity index, ratio of LD50 for E6/E7 immortalized human HNME cells to IC50 for human MDA-MB-231 cells
MCF7 [21] = experiment: Inhibition of anchorage-independent colony formation in human MCF7 cells at 5 uM measured upto 21 days by soft agar colony formation assay; format: functional, cell-based
MDA-MB-231 [22] = experiment: Inhibition of anchorage-independent colony formation in human MDA-MB-231 cells at 5 uM measured upto 21 days by soft agar colony formation assay; format: functional, cell-based

CS(=O)(=O)c1ccc(C(=O)/C=C/c2ccc(N(CCCl)CCCl)cc2)cc1
IC50 (MDA-MB-231 [1]): 7.44 µM
Activity (MDA-MB-231 [2]): 28.7%
Activity (MDA-MB-468 [3]): Active
growth inhibition (GI) (MDA-MB-231 [4]): Active
Activity (MDA-MB-231 [5]): Active
Activity (MCF7 [6]): Active
Activity (MDA-MB-231 [7]): 80%
CC50 at 48 h [8]: 29.4 µM
growth inhibition (GI) (MCF7 [9]): Active
IC50 (MCF7 [10]): 14.1 µM
Ratio LD50/IC50 [11]: 2.08
Activity (MDA-MB-468 [12]): Active
Activity (MCF7 [13]): Active
Ratio LD50/IC50 [14]: 2.21
Activity (Chorioallantoic membrane): Active
Activity (MDA-MB-468 [15]): 46.8%
IC50 (MDA-MB-231 [16]): 6.14 µM
Activity (MDA-MB-231 [17]): Active
IC50 (MDA-MB-468 [18]): 13.3 µM
colony formation inhibition (active/inactive) (MDA-MB-468 [19]): Active
Ratio LD50/IC50 [20]: 3.95
colony formation inhibition (activity call) (MCF7 [21]): Active
inhibition (MDA-MB-231 [22]): Active

COc1cc2c(c(OC)c1OC)-c1ccc(OC)c(=O)cc1[C@@H](NC(C)=O)CC2
Activity (MDA-MB-231 [17]): Active
colony formation inhibition (active/inactive) (MDA-MB-468 [19]): Active
inhibition (MCF7 [21]): Active
inhibition (MDA-MB-231 [22]): Active

COc1ccccc1C(=O)/C=C/c1ccc(N(CCCl)CCCl)cc1
IC50 (MDA-MB-231 [16]): 2.86 µM
Activity (MDA-MB-231 [17]): Active

CSc1ccc(C(=O)/C=C/c2ccc(N3CCOCC3)cc2)cc1
Activity (Chorioallantoic membrane): Active
IC50 (MDA-MB-231 [16]): 4.8 µM
Activity (MDA-MB-231 [17]): Active
